≈ marks a conversion by molar mass, not a printed value.
What follows are compounds tested on Mycobacterium tuberculosis H37Rv strains (assay: In vitro assay for antimicrobial susceptibility (microplate Alamar blue MIC)). Conditions: Mycobacterium tuberculosis, H37RV, 7H9, Alamar blue, inhibition ≧90%; read-out: MIC (μg/mL) against H37Rv.
Type: cell-based

Compared with `COC1CCC(/N=c2\cc3n(-c4ccc(F)c(F)c4)c4ccccc4nc-3cc2Nc2cnccn2)CC1` (stereo not shown) [TBI-1445, 5-(3,4-Difluorophenyl)-3-(4-methoxycyclohexyl)imino-2-(pyrazin-2-yl)amino-3,5-dihydrophenazine], `Clc1ccc(-n2c3c/c(=N\C4CCOCC4)c(Nc4cncnc4)cc-3nc3ccccc32)cc1` [TBI-960, 5-(4-Chlorophenyl)-3-(4-tetrahydropyranyl)imino-2-(pyrimidin-5-yl)amino-3,5-dihydrophenazine] is 1.9-fold lower in MIC: 0.056 µg/mL (≈ 0.109 µM) for the first, 0.03 µg/mL (≈ 0.0621 µM) for the second.

Same assay, conditions: Mycobacterium tuberculosis, H37RV, in vitro, Mycobacterium tuberculosis H37Rv strains; read-out: MIC (μg/mL) against H37Rv

`CC(C)/N=c1\cc2n(-c3cccc(OC(F)(F)F)c3)c3ccccc3nc-2cc1Nc1cccnc1` [TBI-1019] and `FC(F)(F)Oc1cccc(-n2c3c/c(=N\C4CCOCC4)c(Nc4cccnc4)cc-3nc3ccccc32)c1` [TBI-1020, 5-(3-Trifluoromethoxyphenyl)-3-(4-tetrahydropyranyl)imino-2-(3-pyridyl)amino-3,5-dihydrophenazine] are within 1.5-fold of each other in MIC: 0.057 µg/mL (≈ 0.116 µM) for the first, 0.058 µg/mL (≈ 0.109 µM) for the second.

Going from `CC(C)CN1CCC(/N=c2\cc3n(-c4ccc(F)cc4)c4ccccc4nc-3cc2Nc2cccnc2)CC1` [TBI-683, 5-(4-Fluorophenyl)-3-(N-isobutyl-4-piperidyl)imino-2-(3-pyridyl)amino-3,5-dihydrophenazine] to `Cc1ccc(Nc2cc3nc4ccccc4n(-c4ccc(F)cc4)c-3c/c2=N\C2CCN(CC(C)C)CC2)cn1` [TBI-904, 5-(4-Fluorophenyl)-3-(N-isobutyl-4-piperidyl)imino-2-(6-methyl-3-pyridyl)amino-3,5-dihydrophenazine], the MIC falls from 0.125 µg/mL (≈ 0.24 µM) to 0.016 µg/mL (≈ 0.0299 µM) (7.8-fold).

`COc1ccc(Nc2cc3nc4ccccc4n(-c4ccccc4)c-3c/c2=N\C2CCOCC2)cn1` [TBI-515, 5-Phenyl-3-(4-tetrahydropyranyl)imino-2-(6-methoxy-3-pyridyl)amino-3,5-dihydrophenazine] and `Cc1ncccc1Nc1cc2nc3ccccc3n(-c3ccccc3)c-2c/c1=N\C1CCOCC1` [TBI-075, 5-Phenyl-3-(4-tetrahydropyranyl)imino-2-(2-methyl-3-pyridyl)amino-3,5-dihydrophenazine] are within 1.5-fold of each other in MIC: 0.233 µg/mL (≈ 0.488 µM) for the first, 0.328 µg/mL (≈ 0.711 µM) for the second.

First: OC1CCC(/N=c2\cc3n(-c4ccc(Br)cc4)c4ccccc4nc-3cc2Nc2cccnc2)CC1 (stereo not shown) [TBI-094, 5-(4-Bromophenyl)-3-(4-hydroxycyclohexyl)imino-2-(3-pyridyl)amino-3,5-dihydrophenazine]
Second: Cc1ccc(-n2c3c/c(=N\C4CCCCC4)c(Nc4cccnc4)cc-3nc3ccccc32)cc1 [TBI-333, 5-(4-Methylphenyl)-3-cyclohexylimino-2-(3-pyridyl)amino-3,5-dihydrophenazine]
The MIC of the first is 8.2-fold higher: 0.5 µg/mL (≈ 0.925 µM) for the first, 0.061 µg/mL (≈ 0.133 µM) for the second.

Compared with `COc1ncccc1Nc1cc2nc3ccccc3n(-c3ccc(Br)cc3)c-2c/c1=N\C1CCOCC1` [TBI-518, 5-(4-Bromophenyl)-3-(4-tetrahydropyranyl)imino-2-(2-methoxy-3-pyridyl)amino-3,5-dihydrophenazine], `COc1ncccc1Nc1cc2nc3ccccc3n(-c3ccccc3Cl)c-2c/c1=N\C1CCOCC1` [TBI-870] is 4.2-fold higher in MIC: 0.02 µg/mL (≈ 0.0359 µM) for the first, 0.084 µg/mL (≈ 0.164 µM) for the second.

Compared with `COc1ncccc1Nc1cc2nc3cc(F)ccc3n(-c3ccc(OC(F)(F)F)cc3)c-2c/c1=N\C1CCCCC1` [TBI-862, 8-Fluoro-5-(4-trifluoromethoxyphenyl)-3-cyclohexylimino-2-(2-methoxy-3-pyridyl)amino-3,5-dihydrophenazine], `Cc1ccc(Nc2cc3nc4cc(F)ccc4n(-c4ccc(OC(F)(F)F)cc4)c-3c/c2=N\C2CCCCC2)cn1` [TBI-865, 8-Fluoro-5-(4-trifluoromethoxyphenyl)-3-cyclohexylimino-2-(6-methyl-3-pyridyl)amino-3,5-dihydrophenazine] is 2.8-fold lower in MIC: 0.088 µg/mL (≈ 0.152 µM) for the first, 0.031 µg/mL (≈ 0.0552 µM) for the second.

`Cc1ccc(Nc2cc3nc4cc(C#N)ccc4n(-c4ccc(F)cc4)c-3c/c2=N\C(C)C)cn1` [TBI-1067, 8-Cyano-5-(4-fluorophenyl)-3-(1-methylethyl)imino-2-(6-methyl-3-pyridyl)amino-3,5-dihydrophenazine] and `COC1CCC(/N=c2\cc3n(-c4ccc(F)cc4)c4ccc(C#N)cc4nc-3cc2Nc2ccc(C)nc2)CC1` (stereo not shown) [TBI-1068, 8-Cyano-5-(4-fluorophenyl)-3-(4-methyoxycyclohexyl)imino-2-(6-methyl-3-pyridyl)amino-3,5-dihydrophenazine] are within 1.5-fold of each other in MIC: 0.117 µg/mL (≈ 0.253 µM) for the first, 0.165 µg/mL (≈ 0.31 µM) for the second.

Going from `COC1CCC(/N=c2\cc3n(-c4ccc(Cl)c(Cl)c4)c4ccc(F)cc4nc-3cc2Nc2ccc(C)nc2)CC1` (stereo not shown) [TBI-878, 8-Fluoro-5-(3,4-dichlorophenyl)-3-(4-methoxycyclohexyl)imino-2-(6-methyl-3-pyridinyl)amino-3,5-dihydrophenazine] to `COC1CCC(/N=c2\cc3n(-c4ccc(Cl)c(Cl)c4)c4cc(F)ccc4nc-3cc2Nc2ccc(C)nc2)CC1` (stereo not shown) [TBI-897, 7-Fluoro-5-(3,4-dichlorophenyl)-3-(4-methoxycyclohexyl)imino-2-(6-methyl-3-pyridyl)amino-3,5-dihydrophenazine], the MIC rises from 0.029 µg/mL (≈ 0.0503 µM) to 0.25 µg/mL (≈ 0.434 µM) (8.6-fold).

First: COc1ncccc1Nc1cc2nc3ccc(F)cc3n(-c3ccc(Cl)c(Cl)c3)c-2c/c1=N\C(C)C [TBI-899, 7-Fluoro-5-(3,4-dichlorophenyl)-3-(1-methylethyl)imino-2-(2-methoxy-3-pyridyl)amino-3,5-dihydrophenazine]
Second: Cc1ccc(Nc2cc3nc4ccc(F)cc4n(-c4ccc(Cl)c(Cl)c4)c-3c/c2=N\C(C)C)cn1 [TBI-896, 7-Fluoro-5-(3,4-dichlorophenyl)-3-(1-methylethyl)imino-2-(6-methyl-3-pyridyl)amino-3,5-dihydrophenazine]
The MIC of the first is 2-fold lower: 0.125 µg/mL (≈ 0.239 µM) for the first, 0.25 µg/mL (≈ 0.494 µM) for the second.

First: COc1ncccc1Nc1cc2nc3ccccc3n(-c3ccc(Cl)cc3Cl)c-2c/c1=N\C(C)C [TBI-369, 5-(2,4-Dichlorophenyl)-3-(1-methylethyl)imino-2-(2-methoxy-3-pyridyl)amino-3,5-dihydrophenazine]
Second: COc1ccc(Nc2cc3nc4ccccc4n(-c4ccccc4)c-3c/c2=N\C(C)C)cn1 [TBI-510, 5-Phenyl-3-(1-methylethyl)imino-2-(6-methoxy-3-pyridyl)amino-3,5-dihydrophenazine]
The MIC of the first is 4.8-fold lower: 0.104 µg/mL (≈ 0.206 µM) for the first, 0.5 µg/mL (≈ 1.15 µM) for the second.

`COC1CCC(/N=c2\cc3n(-c4ccc(F)cc4)c4ccccc4nc-3cc2Nc2cncc(C)c2)CC1` (stereo not shown) [TBI-1026] and `Cc1cncc(Nc2cc3nc4ccccc4n(-c4ccc(F)cc4)c-3c/c2=N\C(C)C)c1` [TBI-1025, 5-(4-Fluorophenyl)-3-(1-methylethyl)imino-2-(5-methyl-3-pyridyl)amino-3,5-dihydrophenazine] are within 1.5-fold of each other in MIC: 0.121 µg/mL (≈ 0.238 µM) for the first, 0.122 µg/mL (≈ 0.279 µM) for the second.

`Cc1ccc(-n2c3c/c(=N\C4CC4)c(Nc4ccc(C)nc4)cc-3nc3ccccc32)cc1` [TBI-340, 5-(4-Methylphenyl)-3-cyclopropylimino-2-(6-methyl-3-pyridyl)amino-3,5-dihydrophenazine] and `Cc1ccc(-n2c3c/c(=N\C4CCN(CC(C)C)CC4)c(Nc4ccc(C)nc4)cc-3nc3ccccc32)cc1` [TBI-320, 5-(4-Methylphenyl)-3-(N-isobutyl-4-piperidyl)imino-2-(6-methyl-3-pyridyl)amino-3,5-dihydrophenazine] are within 1.5-fold of each other in MIC: 0.149 µg/mL (≈ 0.345 µM) for the first, 0.11 µg/mL (≈ 0.207 µM) for the second.

First: COc1ncccc1Nc1cc2nc3ccc(F)cc3n(-c3ccc(Cl)c(Cl)c3)c-2c/c1=N\C1CCOCC1 [TBI-884, 7-Fluoro-5-(3,4-dichlorophenyl)-3-(4-tetrahydropyranyl)imino-2-(2-methoxy-3-pyridyl)amino-3,5-dihydrophenazine]
Second: COc1ncccc1Nc1cc2nc3ccccc3n(-c3ccc(F)cc3)c-2c/c1=N\C1CCCCC1 [TBI-1009, 5-(4-Fluorophenyl)-3-cyclohexylimino-2-(2-methoxy-3-pyridyl)amino-3,5-dihydrophenazine]
The MIC of the first is 17-fold higher: 0.5 µg/mL (≈ 0.886 µM) for the first, 0.03 µg/mL (≈ 0.0608 µM) for the second.

`Cc1ccc(Nc2cc3nc4ccccc4n(-c4ccccc4)c-3c/c2=N\C2CCN(CC(C)C)CC2)cn1` [TBI-068, 5-Phenyl-3-(N-isobutyl-4-piperidyl)imino-2-(6-methyl-3-pyridyl)amino-3,5-dihydrophenazine] and `CC(C)CN1CCC(/N=c2\cc3n(-c4ccccc4)c4ccccc4nc-3cc2Nc2cccnc2)CC1` [TBI-057, 5-phenyl-3-(N-isobutyl-4-piperidyl)imino-2-(3-pyridyl)amino-3,5-dihydrophenazine] are within 1.5-fold of each other in MIC: 0.156 µg/mL (≈ 0.302 µM) for the first, 0.125 µg/mL (≈ 0.249 µM) for the second.

`FC(F)(F)c1ccc(-n2c3c/c(=N\C4CCOCC4)c(Nc4cccnc4)cc-3nc3ccccc32)cc1` [TBI-686, 5-(4-Trifluoromethylphenyl)-3-(4-tetrahydropyranyl)imino-2-(3-pyridyl)amino-3,5-dihydrophenazine] and `CN1CCC(/N=c2\cc3n(-c4ccc(C(F)(F)F)cc4)c4ccccc4nc-3cc2Nc2cccnc2)CC1` [TBI-689, 5-(4-Trifluoromethylphenyl)-3-(N-methyl-4-piperidyl)imino-2-(3-pyridyl)amino-3,5-dihydrophenazine] are the same in MIC: 0.125 µg/mL (≈ 0.242 µM) for the first, 0.125 µg/mL (≈ 0.236 µM) for the second.

First: Cc1ccc(Nc2cc3nc4ccc(F)cc4n(-c4ccc(OC(F)(F)F)cc4)c-3c/c2=N\C(C)C)cn1 [TBI-854, 7-Fluoro-5-(4-trifluoromethoxyphenyl)-3-(1-methylethyl)imino-2-(6-methyl-3-pyridyl)amino-3,5-dihydrophenazine]
Second: COC1CCC(/N=c2\cc3n(-c4ccc(OC(F)(F)F)cc4)c4ccc(F)cc4nc-3cc2Nc2ccc(C)nc2)CC1 (stereo not shown) [TBI-866, 8-Fluoro-5-(4-trifluoromethoxyphenyl)-3-(4-methoxycyclohexyl)imino-2-(6-methyl-3-pyridyl)amino-3,5-dihydrophenazine]
The MIC of the first is 2.5-fold higher: 0.067 µg/mL (≈ 0.128 µM) for the first, 0.027 µg/mL (≈ 0.0456 µM) for the second.

`COc1ccc(Nc2cc3nc4ccccc4n(-c4ccc(C(F)(F)F)cc4)c-3c/c2=N\C2CCC2)cn1` [TBI-737, 5-(4-Trifluoromethylphenyl)-3-cyclobutylimino-2-(6-methoxy-3-pyridyl)amino-3,5-dihydrophenazine] and `Cc1ncccc1Nc1cc2nc3ccccc3n(-c3ccc(C(F)(F)F)cc3)c-2c/c1=N\C1CCC(O)CC1` (stereo not shown) [TBI-709, 5-(4-Trifluoromethylphenyl)-3-(4-hydroxycyclohexyl)imino-2-(2-methyl-3-pyridyl)amino-3,5-dihydrophenazine] are within 1.5-fold of each other in MIC: 0.119 µg/mL (≈ 0.231 µM) for the first, 0.108 µg/mL (≈ 0.199 µM) for the second.

`CC(=O)Nc1ccc(Nc2cc3nc4ccccc4n(-c4ccc(F)cc4)c-3c/c2=N\C2CCN(CC(C)C)CC2)cn1` [TBI-913, 5-(4-Fluorophenyl)-3-(N-isobutyl-4-piperidyl)imino-2-(6-acetamino-3-pyridyl)amino-3,5-dihydrophenazine] was tested, and the MIC was 0.144 µg/mL (≈ 0.249 µM).

Reference: patent US8716292B2, “Riminophenazines with 2-(heteroaryl)amino substituents and their anti-microbial activity” (priority 2010, dated 2014)
